Several values for one entry are separate records, joined by “and”; a condition that tells them apart may be missing. Identical values can stand only once. Like-named read-outs stand apart in the source and are kept apart here.
Experiments:
[1] = test system: DENV type 1; details: rhesus monkeys infected with DENV type 1, therapeutic and prophylactic protocols; cited from earlier work
[2] = test system: YFV; details: rhesus monkey, in vivo; cited from earlier work
[3] = test system: Vaccinia Virus (VV); type: cell-based; details: read-out: concentration required to reduce the plaque number by 50%, VV
[4] = test system: Bovine viral diharrea virus (BVDV); type: cell-based; details: read-out: concentration required to achieve 50% protection from BVDV induced cytopathogenicity
[5] = test system: TBEV strain Oshima 5-10; type: cell-based, Tick-borne encephalitis virus
[6] = test system: Yellow fever virus (YFV) 17D vaccine strain; type: cell-based; details: read-out: EC50, anti-YFV, CPE reduction assay
[7] = test system: YFV; type: cell-based, Yellow fever virus; details: read-out: EC50, anti-YFV, virus yield reduction assay
[8] = test system: TBEV strain Oshima 5-10; type: cell-based, Tick-borne encephalitis virus; details: read-out: EC50, TBEV, virus yield assay
[9] = test system: Modoc (MODV) strain M544; type: cell-based, Modoc virus; details: read-out: EC50, anti-MODV, virus yield reduction assay
[10] = test system: Reovirus-1 (Reo-1); type: cell-based; details: read-out: concentration required to achieve 50% protection from Reovirus-1 induced cytopathogenicity
[11] = test system: Poliovirus 1 (Sb-1); type: cell-based; details: read-out: concentration required to reduce the plaque number by 50%, Sb-1
[12] = test system: JEV strain SA-14; type: cell-based, Japanese encephalitis virus
[13] = test system: BHK cells (Hamster normal kidney fibroblast)
[14] = previous studies, Guzzo C A et al. 2002; cited from earlier work
[15] = test system: JEV strain SA-14; type: cell-based, Japanese encephalitis virus; details: read-out: EC50, JEV, virus yield assay
[16] = test system: Vesicular Stomatitis Virus (VSV); type: cell-based; details: read-out: concentration required to reduce the plaque number by 50%, VSV
[17] = test system: Dengue subgenomic replicons; assay: Anti-DENV activity in BHK cells containing Dengue subgenomic replicons; type: cell-based, Dengue virus
[18] = test system: VERO-76 (Monkey normal kidney) monolayers
[19] = test system: Coxsackievirus B2 (CVB-2); type: cell-based; details: read-out: concentration required to reduce the plaque number by 50%, CVB-2
[20] = test system: Dengue virus (DENV) serotype 2 New Guinea C (NGC) strain; type: cell-based; details: read-out: EC50, anti-DENV, virus yield reduction assay
[21] = test system: Herpesvirus 1 (HSV-1); type: cell-based; details: read-out: concentration required to reduce the plaque number by 50%, HSV-1
[22] = test system: Respiratory Syncytial Virus (RSV); type: cell-based; details: read-out: concentration required to reduce the plaque number by 50%, RSV
[23] = test system: MDBK (Bovine normal kidney) cells

Compound: NC(=O)c1ncn([C@@H]2O[C@H](CO)[C@@H](O)[C@H]2O)n1 [ribavirin, 1-beta-D-ribofuranosyl-1,2,4-triazole-3-carboxamide]
- effect on viremia or survival [1]: no effect on viremia or survival was observed
- effect on viremia or survival [2]: no effect on viremia or survival was observed

Compound: ivermectin
- EC50 [3]: > 6000 nM
- EC50 [4]: ~1500 nM
- EC50 ([5]; read-out: EC50, TBEV, viral titer reduction assay): 200 nM
- EC50 ([5]; read-out: EC50, TBEV, viral titration on BHK21 cells): 200 nM
- EC50 [6]: 7.4 nM and 10.3 nM
- EC50 [7]: 4.9 nM
- EC50 [8]: 100 to 1000 nM
- EC50 [9]: 730 nM
- EC50 [10]: > 1500 nM
- EC50 [11]: > 6000 nM
- EC50 ([12]; read-out: EC50, JEV, viral titer reduction assay): 300 nM
- EC50 ([12]; read-out: EC50, JEV, viral titration on BHK21 cells): 300 nM
- concentration required to reduce the viability of BHK monolayers by 50% [13]: 1.5 µM
- dose that can be safely employed [14]: up to 10 times the highest FDA-approved dose of 200 μg/kg
- EC50 [15]: 100 to 1000 nM
- EC50 [16]: > 6000 nM
- anti-DENV activity in replicon cells [17]: possess anti-DENV activity
- concentration required to reduce the viability of VERO 76 monolayers by 50% [18]: 6 µM
- EC50 [19]: > 6000 nM
- EC50 [20]: 710 nM
- EC50 [21]: > 6000 nM
- EC50 [22]: > 6000 nM
- concentration required to reduce the viability of MDBK cells by 50% [23]: 11 µM

— patent US8741856B2, “Avermectins and milbemycins for the treatment, prevention or amelioration of flavivirus infections” (priority 2009, dated 2014)
